Results on 11 compounds are retold here after patent publication US10633394B2, “Heterocyclic derivatives and use thereof” (C & C RESEARCH LABORATORIES, priority 2014, dated 2020).

Holding throughout (assay type): cell-based
Assay [1] concerns NCI-N87. Put plainly: Cell growth inhibition assay (CellTiter-Glo), stomach cancer cell line NCI-N87. To be noted: NCI-N87 cells, 96 hours. The method in brief: (§1)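 Cells seeded at 5,000/well (NCI-N87) or 10,000/well (MDA-MB-468) and exposed to serially diluted compounds for 96 h at 37 °C, NCI-N87 under 5% CO2 and MDA-MB-468 in air. Viability read by CellTiter-Glo luminescence; cell-free wells served as negative control and 0.1% DMSO wells as positive control.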

In assay [2] the target is T1, STAT3 (Homo sapiens, UniProt P40763).
T1 construct: plasmid pSTAT3-TA-luc), which contains a stably operating STAT3 promoter; endogenous in cells
T1 sequence (P40763 whole entry): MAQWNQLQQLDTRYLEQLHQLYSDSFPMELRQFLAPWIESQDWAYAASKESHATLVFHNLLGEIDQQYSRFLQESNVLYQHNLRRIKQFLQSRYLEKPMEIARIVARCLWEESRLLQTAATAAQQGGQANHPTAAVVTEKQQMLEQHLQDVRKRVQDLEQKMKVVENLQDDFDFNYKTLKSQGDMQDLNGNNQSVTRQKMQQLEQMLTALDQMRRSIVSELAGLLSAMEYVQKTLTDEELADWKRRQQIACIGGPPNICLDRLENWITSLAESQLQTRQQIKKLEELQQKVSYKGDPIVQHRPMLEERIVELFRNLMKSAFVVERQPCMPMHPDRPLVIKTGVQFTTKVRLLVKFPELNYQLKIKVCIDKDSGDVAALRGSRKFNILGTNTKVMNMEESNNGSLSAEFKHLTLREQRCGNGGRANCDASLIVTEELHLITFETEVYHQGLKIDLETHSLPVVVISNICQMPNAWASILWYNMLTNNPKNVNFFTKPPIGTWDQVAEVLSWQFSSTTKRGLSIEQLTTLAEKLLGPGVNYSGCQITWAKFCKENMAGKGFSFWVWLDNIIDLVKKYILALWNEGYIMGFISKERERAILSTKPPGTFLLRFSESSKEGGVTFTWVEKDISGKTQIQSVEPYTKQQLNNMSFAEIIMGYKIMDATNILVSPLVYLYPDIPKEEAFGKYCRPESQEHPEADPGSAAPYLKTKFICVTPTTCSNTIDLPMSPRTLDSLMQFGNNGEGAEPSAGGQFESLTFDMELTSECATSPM
Put plainly: STAT3 reporter gene (luciferase) assay in LNCaP stable cell line stimulated with IL-6. The conditions noted are these: LNCaP stable cell line (pSTAT3-TA-luc), IL-6 10 ng/mL, 24 hours. The method in brief: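 LNCaP cells stably carrying pSTAT3-TA-luc, in RPMI1640 with 3% DCC-FBS, cultured 24 hours, then treated with compound at various concentrations plus IL-6 (final 10 ng/mL) for 24 hours at 37° C. Luciferase measured in lysates; parallel plate read for viability by CellTiter-Glo.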
For orientation: A reporter such as luciferase makes a cellular process visible.

Assay [3] concerns MDA-MB-468. Put plainly: Cell growth inhibition assay (CellTiter-Glo), breast cancer cell line MDA-MB-468. To be noted: MDA-MB-468 cells, 96 hours. Summed up: as §1
Assay [4] has as its target T2, STAT1 (Homo sapiens, UniProt P42224).
T2 construct: pGL4-STAT1-TA-luc), which contains a stably operating STAT1 promoter; endogenous in cells
T2 sequence (P42224 1-750): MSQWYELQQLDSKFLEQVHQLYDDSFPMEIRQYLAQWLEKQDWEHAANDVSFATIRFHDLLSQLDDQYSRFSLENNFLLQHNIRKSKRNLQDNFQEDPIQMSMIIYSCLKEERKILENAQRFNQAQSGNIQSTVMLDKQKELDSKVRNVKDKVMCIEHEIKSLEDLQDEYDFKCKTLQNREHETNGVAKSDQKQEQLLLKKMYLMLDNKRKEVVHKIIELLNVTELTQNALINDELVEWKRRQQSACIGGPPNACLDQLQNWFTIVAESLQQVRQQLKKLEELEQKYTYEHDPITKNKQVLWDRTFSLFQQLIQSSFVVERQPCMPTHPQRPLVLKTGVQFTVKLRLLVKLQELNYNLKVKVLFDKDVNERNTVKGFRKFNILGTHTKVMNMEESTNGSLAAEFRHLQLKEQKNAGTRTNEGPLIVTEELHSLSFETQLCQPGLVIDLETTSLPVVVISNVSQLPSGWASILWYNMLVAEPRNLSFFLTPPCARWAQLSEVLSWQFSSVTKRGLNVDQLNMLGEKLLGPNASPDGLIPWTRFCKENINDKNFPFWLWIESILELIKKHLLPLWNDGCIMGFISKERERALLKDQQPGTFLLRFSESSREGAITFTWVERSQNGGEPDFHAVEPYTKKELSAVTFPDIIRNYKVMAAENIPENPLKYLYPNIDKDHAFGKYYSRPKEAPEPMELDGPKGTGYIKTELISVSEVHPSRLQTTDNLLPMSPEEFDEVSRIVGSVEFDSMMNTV
Put plainly: STAT1 reporter gene (luciferase) assay in U2OS stable cell line stimulated with IFN-γ. To be noted: U2OS stable cell line (pGL4-STAT1-TA-luc), IFN-γ 50 ng/mL, 8 hours; read-out: IC50 (μM) pSTAT1. As for the experimental part:
1-2) Experiment on the Inhibition of STAT1 Activity
A human osteosarcoma cell line (U2OS stable cell line; pGL4-STAT1-TA-luc), which contains a stably operating STAT1 promoter, was cultured in McCoy 5′A medium (Cat No. 16600, Life Technologies) containing 10% FBS (Cat No. SH30396, Thermo Scientific) and 1000 μg/mL G418 solution (Cat No. 04 727 894 001, Roche). The reporter gene assay using U2OS stable cell line was performed in McCoy 5′A medium containing 10% FBS without G-418 solution. U2OS stable cells were plated in two (2) white 96-well plates with 25,000 cells/50 μL in each well. […] The plates were observed under microscope and drug precipitation and particular findings were investigated and recorded.
The luciferase assay and the cell viability assay were performed respectively with one of two plates. […] After shaking the plate for 30 minutes, luciferase activities of each well were measured in a PHERAstar™ microplate reader (BMG LABTECH) using a luciferase assay system (Cat No. E1501, Promega). For the cell viability assay, the 96-well plate was placed at room temperature for 30 minutes, added with 20 μL/well of CellTiter-Glo solution (Cat No. G7573, Promega), and shaken for 10 minutes in order to measure cytotoxicity caused by the compounds listed in Examples with a PHERAstar™ microplate reader (BMG LABTECH). […]

Broadly, the IC50 is the concentration needed to halve the response being measured. On to “N-(2-chloro-6-(5-chloro-2-methylphenoxy)pyridin-4-yl)-4-(methylsulfonyl)-3,4-dihydro-2H-thieno[3,2-g]chromene-7-carboxamide [Example 37]”, for which the IC50 in assay [1] is 0.0095 µM; in assay [2] it was 0.0062 µM; in assay [3], 0.0047 µM; in assay [4], > 50 µM.
Regarding “tert-butyl 7-((2-chloro-6-(4-chlorophenoxy)pyridin-4-yl)carbamoyl)-1-(methylsulfonyl)-2,3-dihydrothieno[2,3-g]quinoxaline-4(1H)-carboxylate [Example 5]”, the IC50 in assay [1] was 0.72 µM; in assay [2], 0.76 µM; in assay [4], > 50 µM.
On to `CN1CCN(S(C)(=O)=O)c2cc3cc(C(=O)Nc4cc(Cl)nc(Oc5ccc(Cl)cc5)c4)sc3cc21` [Example 7, N-(2-chloro-6-(4-chlorophenoxy)pyridin-4-yl)-4-methyl-1-(methylsulfonyl)-1,2,3,4-tetrahydrothieno[2,3-g]quinoxaline-7-carboxamide], for which the figures for the IC50 in assay [1] (Homo sapiens), in assay [2] and in assay [3] (Homo sapiens) were 0.027 µM, 0.012 µM and 0.0065 µM, respectively.
In the same order, the values of `CS(=O)(=O)C1CCOc2cc3sc(C(=O)Nc4cc(Cl)nc(Oc5ccc(Cl)cc5F)c4)cc3cc21` (stereo not shown) [Example 23, N-(2-chloro-6-(4-chloro-2-fluorophenoxy)pyridin-4-yl)-4-(methylsulfonyl)-3,4-dihydro-2H-thieno[3,2-g]chromene-7-carboxamide] are 0.0056 µM, 0.0063 µM and 0.0028 µM.
Consider `CS(=O)(=O)[C@@H]1CCOc2cc3sc(C(=O)Nc4cc(Cl)nc(Oc5ccc(Cl)cc5)c4)cc3cc21` [Example 44, (R)—N-(2-chloro-6-(4-chlorophenoxy)pyridin-4-yl)-4-(methylsulfonyl)-3,4-dihydro-2H-thieno[3,2-g]chromene-7-carboxamide], for which the IC50 stood at 1.8 µM in assay [1] (Homo sapiens), 1.5 µM in assay [2] and 0.086 µM in assay [3] (Homo sapiens).
For `CS(=O)(=O)C1CCCc2cc3sc(C(=O)Nc4cc(Cl)nc(Oc5ccc(Cl)cc5)c4)cc3cc21` (stereo not shown) [Example 10, N-(2-chloro-6-(4-chlorophenoxy)pyridin-4-yl)-5-(methylsulfonyl)-5,6,7,8-tetrahydronaphtho[2,3-b]thiophene-2-carboxamide], the results for the IC50 in assay [1] (Homo sapiens), in assay [2] and in assay [3] (Homo sapiens) were 0.006 µM, 0.0026 µM and 0.0019 µM, respectively.
For the compound `Cc1ccc(Oc2cc(NC(=O)c3cc4cc5c(cc4s3)OCCC5S(C)(=O)=O)cc(Cl)n2)cc1` (stereo not shown) [Example 15, N-(2-chloro-6-(p-tolyloxy)pyridin-4-yl)-4-(methylsulfonyl)-3,4-dihydro-2H-thieno[3,2-g]chromene-7-carboxamide], the results for the IC50 in assay [1] (Homo sapiens), in assay [2] and in assay [3] (Homo sapiens) were 0.035 µM, 0.018 µM and 0.0089 µM, respectively.
Turning to `Cc1cccc(Oc2cc(NC(=O)c3cc4cc5c(cc4s3)OCCC5S(C)(=O)=O)cc(Cl)n2)c1` (stereo not shown) [Example 33, N-(2-chloro-6-(m-tolyloxy)pyridin-4-yl)-4-(methylsulfonyl)-3,4-dihydro-2H-thieno[3,2-g]chromene-7-carboxamide], the IC50 in assay [1] (Homo sapiens) was 0.024 µM; in assay [2], 0.0098 µM; in assay [3] (Homo sapiens), 0.0093 µM.
With `COc1cc(Cl)ccc1Oc1cc(NC(=O)c2cc3cc4c(cc3s2)OCCC4S(C)(=O)=O)cc(Cl)n1` (stereo not shown) [Example 42, N-(2-chloro-6-(4-chloro-2-methoxyphenoxy)pyridin-4-yl)-4-(methylsulfonyl)-3,4-dihydro-2H-thieno[3,2-g]chromene-7-carboxamide], the IC50 in assay [1] (Homo sapiens) amounted to 0.024 µM; in assay [2], 0.023 µM; in assay [3] (Homo sapiens) it was 0.0078 µM.
In the same order, the values of `CS(=O)(=O)C1CCOc2cc3sc(C(=O)Nc4cc(Cl)nc(Oc5ccc(OC(F)(F)F)cc5)c4)cc3cc21` (stereo not shown) [Example 28, N-(2-chloro-6-(4-(trifluoromethoxy)phenoxy)pyridin-4-yl)-4-(methylsulfonyl)-3,4-dihydro-2H-thieno[3,2-g]chromene-7-carboxamide] are 0.0056 µM, 0.0051 µM and 0.002 µM.
As to `CS(=O)(=O)C1CCOc2cc3sc(C(=O)Nc4cc(Cl)nc(Oc5ccc(Cl)cc5)c4)cc3cc21` (racemic) [Example 8, N-(2-chloro-6-(4-chlorophenoxy)pyridin-4-yl)-4-(methylsulfonyl)-3,4-dihydro-2H-thieno[3,2-g]chromene-7-carboxamide], the IC50 came to 0.031 µM in assay [1] (Homo sapiens), 0.024 µM in assay [2] and 0.0032 µM in assay [3] (Homo sapiens).
